Laboratory results reported in PubChem BioAssay (NCI).
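96-well plates; 48 h exposure; 5 concentrations. Endpoints by linear interpolation between flanking doses. Not reached: highest tested concentration assigned. GI50 marks 50% less growth. TGI is the concentration that stops growth completely.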

Legend:
Assay in all cases: NCI anticancer screen, dose series, 48 h
[1] = tested on: 786-0 renal
[2] = tested on: NCI-H23 lung
[3] = tested on: SF-268 CNS
[4] = tested on: HCC-2998 colon
[5] = tested on: NCI/ADR-RES ovarian
[6] = tested on: MALME-3M melanoma
[7] = tested on: T-47D breast
[8] = tested on: IGROV1 ovarian
[9] = tested on: U251 CNS
[10] = tested on: OVCAR-5 ovarian

`C1=C2CNCC3=Cc4ccc5ccccc5c4OC23Oc2c1ccc1ccccc21` gave a GI50 [1] of 5.1 µM, a TGI [1] of 31.5 µM and a GI50 [2] of 6.94 µM. For the same molecule, the TGI [2] was 32 µM, the GI50 [3] was 5.64 µM and the TGI [3] was 22.1 µM. It also gave a GI50 [4] of 3.99 µM, a TGI [4] of 19.7 µM and a GI50 [5] of 2.1 µM. It also gave a TGI [5] of 6.06 µM, a GI50 [6] of 12.5 µM and a TGI [6] of 38.5 µM. For the same molecule, the GI50 [7] was 8.28 µM, the TGI [7] was 23.2 µM and the GI50 [8] was 9.59 µM. For the same molecule, the TGI [8] was 28.7 µM, the GI50 [9] was 3.26 µM and the TGI [9] was 14.8 µM.
With `O=C(O)C1C2C=CC(O2)C1C(=O)Nc1ncccn1` (stereo not given) the TGI [1] was over 100 µM, the TGI [2] was over 100 µM and the TGI [3] was over 100 µM. For the same molecule, the TGI [10] was over 100 µM, the TGI [5] was over 100 µM and the TGI [6] was over 100 µM. For the same molecule, the TGI [7] was over 100 µM, the TGI [8] was over 100 µM and the TGI [9] was over 100 µM.
With `c1ccc(NC[Si]23OCCN(CCO2)CCO3)cc1` the TGI [1] was over 100 µM, the TGI [2] was over 100 µM and the TGI [3] was over 100 µM. It also gave a TGI [10] of over 100 µM, a TGI [4] of over 100 µM and a TGI [6] of over 100 µM. For the same molecule, the TGI [8] was over 100 µM and the TGI [9] was over 100 µM.
In the case of `C/C(=N/O)c1ccc2c(c1)C(=NO)c1cc(/C(C)=N/O)ccc1-2`, the TGI [1] is reported as 42.3 µM, the TGI [2] is reported as 35.3 µM and the TGI [3] is reported as 28.3 µM. It also gave a TGI [10] of 31.6 µM, a TGI [4] of 33.9 µM and a TGI [6] of 23 µM. For the same molecule, the TGI [8] was 49.2 µM and the TGI [9] was 28.6 µM.
In the case of `C=CC1=CC(C)C[C@]1(O)C(=O)OC` (stereo not given in full), the GI50 [1] is reported as over 100 µM, the GI50 [2] is reported as over 100 µM and the GI50 [3] is reported as over 100 µM. The GI50 [10] was over 100 µM, the GI50 [4] was over 100 µM and the GI50 [6] was over 100 µM. For the same molecule, the GI50 [8] was over 100 µM and the GI50 [9] was over 100 µM.
With `NC(N)=N/N=C/c1c(-c2ccc(Cl)c([N+](=O)[O-])c2)nc2n1CCS2` the GI50 [1] was 4.18 µM, the TGI [1] was 15.3 µM and the GI50 [2] was 14.3 µM. The TGI [2] was 27.3 µM, the GI50 [3] was 16.1 µM and the TGI [3] was 40 µM. The GI50 [10] was 14.6 µM, the TGI [10] was 27.8 µM and the GI50 [5] was 15.8 µM. The TGI [5] was 32.7 µM, the GI50 [7] was 21.6 µM and the TGI [7] was 50.2 µM.
Work on `Cn1cc(CO)c2ccccc21` yielded a GI50 [1] of over 100 µM, a TGI [1] of over 100 µM and a GI50 [2] of 48.2 µM. It also gave a TGI [2] of over 100 µM, a GI50 [3] of 60.6 µM and a TGI [3] of over 100 µM. For the same molecule, the GI50 [10] was over 100 µM, the TGI [10] was over 100 µM and the GI50 [4] was over 100 µM. It also gave a TGI [4] of over 100 µM, a GI50 [5] of 27.1 µM and a TGI [5] of over 100 µM. The GI50 [7] was 62.1 µM, the TGI [7] was over 100 µM and the GI50 [8] was 10.9 µM. The TGI [8] was over 100 µM, the GI50 [9] was 40.3 µM and the TGI [9] was over 100 µM.
`CC(=O)OCCC(O[Si](c1ccccc1)(c1ccccc1)C(C)(C)C)C(C)(C)O` (stereo not given) gave a TGI [1] of 77.2 µM, a TGI [2] of 68.7 µM and a TGI [3] of over 100 µM. The TGI [10] was over 100 µM, the TGI [6] was over 100 µM and the TGI [8] was over 100 µM. For the same molecule, the TGI [9] was over 100 µM.
Molecule `CC(=O)[CH-]C(=O)c1ccccc1.CC(=O)[CH-]C(=O)c1ccccc1.[CH2-]CCC.[CH2-]CCC.[Sn+4]` has a GI50 [1] of 1.09 µM, a TGI [1] of 2.28 µM and a GI50 [2] of 0.476 µM. For the same molecule, the TGI [2] was 1.77 µM, the GI50 [3] was 1.19 µM and the TGI [3] was 3.39 µM. The GI50 [10] was 2.07 µM, the TGI [10] was 3.59 µM and the GI50 [6] was 0.63 µM. The TGI [6] was 1.91 µM, the GI50 [8] was 1.57 µM and the TGI [8] was 3.28 µM. The GI50 [9] was 1.32 µM and the TGI [9] was 2.65 µM.
Work on `COc1ccc(/C=C(/C(=O)n2cnnn2)c2cc(OC)c(OC)c(OC)c2)cc1` yielded a GI50 [1] of 4.76 µM, a TGI [1] of over 100 µM and a GI50 [2] of 5.54 µM. The TGI [2] was over 100 µM, the GI50 [3] was 4.04 µM and the TGI [3] was over 100 µM. It also gave a GI50 [10] of 5.78 µM, a TGI [10] of over 100 µM and a GI50 [5] of 3.87 µM. For the same molecule, the TGI [5] was over 100 µM, the GI50 [6] was 7.75 µM and the TGI [6] was over 100 µM. It also gave a GI50 [7] of over 100 µM, a TGI [7] of over 100 µM and a GI50 [8] of 4.69 µM. It also gave a TGI [8] of over 100 µM, a GI50 [9] of 4.22 µM and a TGI [9] of over 100 µM.
With `C=C(CNCCc1ccc(O)cc1)[C@@H]1CC[C@]2(CO)CC[C@]3(C)[C@H](CC[C@@H]4[C@@]5(C)CCC(N)C(C)(C)[C@@H]5CC[C@]43C)[C@@H]12` (stereo not given in full) the GI50 [1] was 1.52 µM, the TGI [1] was 3 µM and the GI50 [3] was 1.52 µM. For the same molecule, the TGI [3] was 3.03 µM, the GI50 [4] was 1.66 µM and the TGI [4] was 3.3 µM. For the same molecule, the GI50 [6] was 1.58 µM, the TGI [6] was 3.09 µM and the GI50 [7] was 1.64 µM. The TGI [7] was 3.58 µM, the GI50 [9] was 0.917 µM and the TGI [9] was 2.12 µM.
For `C[C@@]12CCCC(=O)N1[C@@H](CO)C(c1ccccc1)O2` (stereo not given in full), the TGI [1] was over 100 µM, the TGI [2] was over 100 µM and the TGI [3] was over 100 µM. It also gave a TGI [10] of over 100 µM, a TGI [6] of over 100 µM and a TGI [8] of over 100 µM. The TGI [9] was over 100 µM.
`CCC(=O)c1cc([N+](=O)[O-])c(Br)s1` was tested, and the GI50 [1] was 12.6 µM, the TGI [1] was 26.6 µM and the GI50 [2] was 17.3 µM. For the same molecule, the TGI [2] was 49.2 µM, the GI50 [3] was 4.39 µM and the TGI [3] was 14.6 µM. It also gave a GI50 [10] of 16.6 µM, a TGI [10] of 32.1 µM and a GI50 [4] of 15.2 µM. It also gave a TGI [4] of 31 µM, a GI50 [5] of 6.15 µM and a TGI [5] of 24.1 µM. The GI50 [6] was 1.85 µM, the TGI [6] was 3.87 µM and the GI50 [9] was 1.85 µM. The TGI [9] was 4.02 µM.
In the case of `CN(C)C(=O)SC1=C(c2c(Cl)cccc2Cl)C(=O)c2ccccc21`, the GI50 [1] is reported as 10.3 µM, the TGI [1] is reported as 22.4 µM and the GI50 [2] is reported as 7.14 µM. It also gave a TGI [2] of 19 µM, a GI50 [3] of 8.9 µM and a TGI [3] of 22.7 µM. The GI50 [10] was 15.5 µM, the TGI [10] was 30.8 µM and the GI50 [4] was 15.6 µM. For the same molecule, the TGI [4] was 29.2 µM, the GI50 [5] was 9.42 µM and the TGI [5] was 25.8 µM. For the same molecule, the GI50 [6] was 1.66 µM, the TGI [6] was 3.74 µM and the GI50 [8] was 4.78 µM. The TGI [8] was 11.4 µM, the GI50 [9] was 8.33 µM and the TGI [9] was 23 µM.
In the case of `Cc1cc([N+](=O)[O-])c(S(=O)(=O)c2ccccc2)c([N+](=O)[O-])c1`, the TGI [1] is reported as 12.3 µM, the TGI [2] is reported as 26.2 µM and the TGI [3] is reported as 50.4 µM. It also gave a TGI [10] of 33.6 µM, a TGI [4] of 35.7 µM and a TGI [6] of 27.9 µM. For the same molecule, the TGI [8] was 31.1 µM and the TGI [9] was 26.6 µM.
`CC1(C)OC(COCCOCCCCCO)C(COCCOCCCCCO)O1` (stereo not given) gave a TGI [1] of over 100 µM, a TGI [2] of over 100 µM and a TGI [3] of over 100 µM. It also gave a TGI [10] of over 100 µM, a TGI [4] of over 100 µM and a TGI [6] of over 100 µM. It also gave a TGI [8] of over 100 µM and a TGI [9] of over 100 µM.
`Cc1ccccc1NC(=O)C(=O)CC(=O)c1ccc([N+](=O)[O-])cc1` gave a TGI [1] of over 100 µM, a TGI [2] of over 100 µM and a TGI [3] of over 100 µM. It also gave a TGI [10] of over 100 µM, a TGI [4] of over 100 µM and a TGI [6] of over 100 µM. The TGI [8] was over 100 µM and the TGI [9] was over 100 µM.
`COC(=O)c1cc2c3c(ccc2[nH]1)N(C(=O)c1cc2c4c(ccc2[nH]1)N(C(=O)c1cc2c5c(ccc2[nH]1)N(C(N)=O)CC5)CC4)CC3` showed a TGI [1] of over 31.9 µM, a TGI [2] of over 100 µM and a TGI [3] of over 100 µM. It also gave a TGI [10] of over 100 µM, a TGI [4] of over 100 µM and a TGI [6] of over 24.2 µM. It also gave a TGI [8] of 20.5 µM and a TGI [9] of over 21.9 µM.
